18 compounds from patent US12570655B2, “Cysteine covalent modifiers of AKT1 and uses thereof” (Terremoto Biosciences, Inc., priority 2023, dated 2026) can be followed below.

Each structure is given as a SMILES string. Where two headings read alike, the source gives them in different places.

In assay [1] the test system is LAPC4 prostate cancer cells. Put plainly: Antiproliferative effects in LAPC4 cells (CellTiter Glo). It is filed as cell-based. Conditions: LAPC4 cells (AKT1 E17K allele), read-out: LAPC4 proliferation IC50. As to the method:
Antiproliferative Effects in LAPC4 Cells.
LAPC4 prostate cancer cells (Klein, K. A. et al. Nat Med 1997, 3, 402-408), which express the AKT1 E17K allele, were grown in IMDM media (Hyclone) supplemented with 12% FBS+1% P/S. To assess compound effects on growth, 1,000 cells/well were seeded in 384 well assay plates, incubated with compound dilutions dissolved in DMSO. After 72 h, intracellular ATP content was assessed with CellTiter Glo reagent (Promega) according to the manufacturer's instructions. IC50 values were calculated by fitting luminescence values to a log(inhibitor) vs. response Hill equation.
Background: In ATP-based viability assays light output follows the ATP content of the culture.

The next assay addresses T1, AKT1 E17K (Homo sapiens, UniProt P31749, E17K).
T1 construct: expressed in transfected cells; host or cells: HEK293
Put plainly: Live cell AKT1 E17K target engagement by NanoBRET competitive probe displacement. In kind it is cell-based. Conditions: HEK293 cells transfected with kinase-NanoLuciferase fusion, 2 h at 37° C. As to the method: Determining Live Cell AKT1 E17K, AKT1 WT, and AKT2 Target Engagement by NanoBRET Competitive Probe Displacement.
Live cell target engagement assays were performed as described (Vasta, J. D. et al. Cell Chem Biol 2018, 25(11), 206-214). Briefly, HEK293 cells were transfected with plasmids encoding kinase-NanoLuciferase fusion proteins overnight. Cells were then treated with serial dilutions of compound and an ˜EC50 concentration of fluorescently-tagged ATP-competitive tracer (Promega). After incubation for 2 h at 37° C., luciferase substrate and extracellular luciferase inhibitor were added to all wells, and luminescent intensity at 460 nm and 600 nm were measured on a multimode plate-reader. The ratio of E600/E460 was calculated to give the tracer engagement signal (BRET). IC50 values were calculated by fitting BRET values to a log(inhibitor) vs. response Hill equation.
A general note: Bioluminescence resonance energy transfer reports proximity on the nanometre scale.

T1 sequence (P31749 whole entry E17K): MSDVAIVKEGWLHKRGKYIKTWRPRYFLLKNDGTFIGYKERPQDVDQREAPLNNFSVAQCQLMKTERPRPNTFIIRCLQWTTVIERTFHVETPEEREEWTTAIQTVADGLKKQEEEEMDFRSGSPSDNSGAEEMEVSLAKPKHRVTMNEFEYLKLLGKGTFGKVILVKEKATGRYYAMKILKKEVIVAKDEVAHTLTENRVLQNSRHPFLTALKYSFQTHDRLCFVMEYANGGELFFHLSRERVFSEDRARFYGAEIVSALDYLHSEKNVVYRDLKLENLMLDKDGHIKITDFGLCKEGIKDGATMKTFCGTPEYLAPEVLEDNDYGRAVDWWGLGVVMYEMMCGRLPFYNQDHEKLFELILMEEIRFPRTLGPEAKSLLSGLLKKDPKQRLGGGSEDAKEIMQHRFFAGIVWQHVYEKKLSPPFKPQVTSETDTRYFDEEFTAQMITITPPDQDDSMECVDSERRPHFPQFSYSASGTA

Regarding `C=CC(=O)N1CCC(N[C@@H]2c3ccc(-n4c(-c5cccnc5N)nc5ccc(C6CC6)nc54)cc3CC2F)CC1` (single isomer, unassigned) [Example 202, 1-(4-(((1R,2*)-5-(2-(2-aminopyridin-3-yl)-5-cyclopropyl-3H-imidazo[4,5-b]pyridin-3-yl)-2-fluoro-2,3-dihydro-1H-inden-1-yl)amino)piperidin-1-yl)prop-2-en-1-one], the IC50 in assay [1] (Homo sapiens, LAPC4, 72 h) was 3090 nM; on AKT1 E17K, 111 nM.

Turning to `C=CC(=O)N1CCC(N[C@H]2CCc3cc(-n4c(-c5ccccc5C#N)nc5ccc(-n6cccn6)nc54)ccc32)CC1` [Example 284, 2-{3-[(1S)-1-{[1-(prop-2-enoyl)piperidin-4-yl]amino}-2,3-dihydro-1H-inden-5-yl]-5-(pyrazol-1-yl)imidazo[4,5-b]pyridin-2-yl}benzonitrile], the IC50 came to 7210 nM in assay [1] (Homo sapiens, LAPC4, 72 h) and 273 nM at AKT1 E17K.

Regarding `C=CC(=O)N1CCC(N[C@H]2CCc3cc(-n4c(-c5cccnc5N)nc5ccc(-c6ccccc6)nc54)ccc32)CC1` [Example 209, (S)-1-(4-((5-(2-(2-aminopyridin-3-yl)-5-phenyl-3H-imidazo[4,5-b]pyridin-3-yl)-2,3-dihydro-1H-inden-1-yl)amino)piperidin-1-yl)prop-2-en-1-one], the IC50 in assay [1] (Homo sapiens, LAPC4, 72 h) came to 17 nM; on AKT1 E17K it was 2.29 nM.

Regarding `C=CC(=O)N1CC(F)C(N[C@H]2CCc3cc(-n4c(-c5cccnc5N)nc5ccc(-n6cccn6)nc54)ccc32)C(F)C1` (single isomer, unassigned) [Example 220, 1-((3*,4*,5*)-4-(((S)-5-(2-(2-aminopyridin-3-yl)-5-(1H-pyrazol-1-yl)-3H-imidazo[4,5-b]pyridin-3-yl)-2,3-dihydro-1H-inden-1-yl)amino)-3,5-difluoropiperidin-1-yl)prop-2-en-1-one], the IC50 is more than 10000 nM in assay [1] (Homo sapiens, LAPC4, 72 h) and 380 nM on AKT1 E17K.

Regarding `C=CC(=O)N1CC(F)C(N[C@H]2CCc3cc(-n4c(-c5cccnc5N)nc5ccc(-n6cccn6)nc54)ccc32)C(F)C1` (single isomer, unassigned) [Example 223, 1-((3*,5*)-4-(((S)-5-(2-(2-aminopyridin-3-yl)-5-(1H-pyrazol-1-yl)-3H-imidazo[4,5-b]pyridin-3-yl)-2,3-dihydro-1H-inden-1-yl)amino)-3,5-difluoropiperidin-1-yl)prop-2-en-1-one], the IC50 in assay [1] (72 h) is more than 10000 nM; on AKT1 E17K, more than 1000 nM.

For the compound `C=CC(=O)N1C[C@H]2COC[C@@H](C1)C2N[C@H]1CCc2cc(-n3c(-c4cccnc4N)nc4ccc(C5CC5)nc43)ccc21` (single isomer, unassigned) [Example 171, 1-((1R,5S,9*)-9-(((S)-5-(2-(2-aminopyridin-3-yl)-5-cyclopropyl-3H-imidazo[4,5-b]pyridin-3-yl)-2,3-dihydro-1H-inden-1-yl)amino)-3-oxa-7-azabicyclo[3.3.1]nonan-7-yl)prop-2-en-1-one], the IC50 in assay [1] (72 h) was 6610 nM; at AKT1 E17K, more than 1000 nM.

As to `C=CC(=O)N1CCC(N[C@H]2CC(F)(F)c3cc(-n4c(-c5cccnc5N)nc5ccc(-n6cccn6)nc54)ccc32)CC1` [Example 305, (S)-1-(4-((5-(2-(2-aminopyridin-3-yl)-5-(1H-pyrazol-1-yl)-3H-imidazo[4,5-b]pyridin-3-yl)-3,3-difluoro-2,3-dihydro-1H-inden-1-yl)amino)piperidin-1-yl)prop-2-en-1-one], the IC50 was 2740 nM in assay [1] (Homo sapiens, LAPC4, 72 h) and 63.4 nM at AKT1 E17K.

For the compound `C=CC(=O)N1CC(F)C(N[C@H]2CCc3cc(-n4c(-c5cccnc5N)nc5ccc(-n6cccn6)nc54)ccc32)C(F)C1` (single isomer, unassigned) [Example 221, 1-((3*,4*,5*)-4-(((S)-5-(2-(2-aminopyridin-3-yl)-5-(1H-pyrazol-1-yl)-3H-imidazo[4,5-b]pyridin-3-yl)-2,3-dihydro-1H-inden-1-yl)amino)-3,5-difluoropiperidin-1-yl)prop-2-en-1-one], the IC50 was more than 10000 nM in assay [1] (72 h) and 567 nM at AKT1 E17K.

Regarding `C=CC(=O)N1CCC(N[C@H]2CCc3cc(-n4c(-c5cccnc5N)nc5ccc(C6COC6)nc54)ccc32)CC1` [Example 279, 1-(4-{[(1S)-5-[2-(2-aminopyridin-3-yl)-5-(oxetan-3-yl)imidazo[4,5-b]pyridin-3-yl]-2,3-dihydro-1H-inden-1-yl]amino}piperidin-1-yl)prop-2-en-1-one], the IC50 in assay [1] (Homo sapiens, LAPC4, 72 h) was 1570 nM; on AKT1 E17K it was 168 nM.

`C=CC(=O)N1CC(F)C(N[C@H]2CCc3cc(-n4c(-c5cccnc5N)nc5ccc(-n6cccn6)nc54)ccc32)C(F)C1` (single isomer, unassigned) [Example 222, 1-((3*,5*)-4-(((S)-5-(2-(2-aminopyridin-3-yl)-5-(1H-pyrazol-1-yl)-3H-imidazo[4,5-b]pyridin-3-yl)-2,3-dihydro-1H-inden-1-yl)amino)-3,5-difluoropiperidin-1-yl)prop-2-en-1-one]: the IC50 was more than 10000 nM in assay [1] (72 h) and more than 1000 nM on AKT1 E17K.

On to `C=CC(=O)N1CCC(N[C@H]2CCc3cc(-n4c(-c5ccccc5C(F)F)nc5ccc(-n6cccn6)nc54)ccc32)CC1` [Example 285, (S)-1-(4-((5-(2-(2-(difluoromethyl)phenyl)-5-(1H-pyrazol-1-yl)-3H-imidazo[4,5-b]pyridin-3-yl)-2,3-dihydro-1H-inden-1-yl)amino)piperidin-1-yl)prop-2-en-1-one], for which the IC50 came to 1550 nM in assay [1] (Homo sapiens, LAPC4, 72 h) and 604 nM on AKT1 E17K.

As for `C=CC(=O)N1CCC(N[C@H]2CCc3cc(-n4c(-c5cccnc5N)nc5ccc(CN6CCOCC6)nc54)ccc32)CC1` [Example 260, 1-(4-{[(1S)-5-[2-(2-aminopyridin-3-yl)-5-(morpholin-4-ylmethyl)imidazo[4,5-b]pyridin-3-yl]-2,3-dihydro-1H-inden-1-yl]amino}piperidin-1-yl)prop-2-en-1-one], the IC50 is more than 10000 nM in assay [1] (Homo sapiens, LAPC4, 72 h) and more than 1000 nM on AKT1 E17K.

Regarding `C=CC(=O)N1CCN(C2CCc3cc(-n4c(-c5cccnc5N)nc5ccc(-n6cccn6)nc54)ccc32)CC1` (centres unmarked) [Example 204, 1-(4-{5-[2-(2-aminopyridin-3-yl)-5-(pyrazol-1-yl)imidazo[4,5-b]pyridin-3-yl]-2,3-dihydro-1H-inden-1-yl}piperazin-1-yl)prop-2-en-1-one], the IC50 in assay [1] (Homo sapiens, LAPC4, 72 h) turned out to be 3820 nM; on AKT1 E17K it was 287 nM.

Turning to `C=CC(=O)N1CCC(N[C@@H]2c3c(F)cc(-n4c(-c5cccnc5N)nc5ccc(-n6cccn6)nc54)cc3CC2F)CC1` (single isomer, unassigned) [Example 341, 1-(4-(((1R,2*)-5-(2-(2-aminopyridin-3-yl)-5-(1H-pyrazol-1-yl)-3H-imidazo[4,5-b]pyridin-3-yl)-2,7-difluoro-2,3-dihydro-1H-inden-1-yl)amino)piperidin-1-yl)prop-2-en-1-one], the IC50 on AKT1 E17K amounted to 80.3 nM.

Turning to `C=CC(=O)N1CCC(N[C@H]2CCc3cc(-n4c(C5CC5)nc5ccc(-n6cccn6)nc54)ccc32)CC1` [Example 248, (S)-1-(4-((5-(2-cyclopropyl-5-(1H-pyrazol-1-yl)-3H-imidazo[4,5-b]-430-pyridine-3-yl)-2,3-dihydro-1H-inden-1-yl)amino)piperidin-1-yl)prop-2-en-1-one], the IC50 in assay [1] (Homo sapiens, LAPC4, 72 h) is more than 10000 nM; at AKT1 E17K, more than 1000 nM.

Turning to `C=CC(=O)N1Cc2cccc(C(=O)N[C@H]3CCc4cc(-n5c(-c6cccnc6N)nc6ccc(-n7cccn7)nc65)ccc43)c2C1` [Example 266, (S)-2-acryloyl-N-(5-(2-(2-aminopyridin-3-yl)-5-(1H-pyrazol-1-yl)-3H-imidazo[4,5-b]pyridin-3-yl)-2,3-dihydro-1H-inden-1-yl)isoindoline-4-carboxamide], the IC50 was found to be 4.4 nM in assay [1] (Homo sapiens, LAPC4, 72 h) and 3.34 nM at AKT1 E17K.

Consider `C=CC(=O)N1CCC(N[C@H]2CCc3cc(-n4c(-c5cccnc5N)nc5ccc(-n6cccn6)nc54)ccc32)C[C@H]1C(F)F` (single isomer, unassigned) [Example 215, 1-((2S,4*)-4-(((S)-5-(2-(2-aminopyridin-3-yl)-5-(1H-pyrazol-1-yl)-3H-imidazo[4,5-b]pyridin-3-yl)-2,3-dihydro-1H-inden-1-yl)amino)-2-(difluoromethyl)piperidin-1-yl)prop-2-en-1-one], for which the IC50 was 42.3 nM in assay [1] (72 h) and 4.56 nM on AKT1 E17K.

Turning to `C=CC(=O)N1CCC(N[C@H]2CCc3cc(-n4c(-c5cccnc5N)nc5ccc(N6C7CCC6COC7)nc54)ccc32)CC1` [Example 278, 1-(4-{[(1S)-5-[2-(2-aminopyridin-3-yl)-5-{3-oxa-8-azabicyclo[3.2.1]octan-8-yl}imidazo[4,5-b]pyridin-3-yl]-2,3-dihydro-1H-inden-1-yl]amino}piperidin-1-yl)prop-2-en-1-one], the IC50 worked out at 1850 nM in assay [1] (Homo sapiens, LAPC4, 72 h) and 164 nM on AKT1 E17K.
